Test results from ChEMBL document CHEMBL3044551, “Synthesis of optically active N-(2-pyridyloxiran-2-ylmethyl) benzenesulfonamide derivatives and their herbicidal activity” (Biosci Biotechnol Biochem, 2001).
≈ marks a conversion by molar mass, not a printed value. Calls of active or inactive are those of the source. The calls are words filed in the database; no cut-off is given here.

Legend:
[1] = test system: Oryza sativa; experiment: Toxicity in two-leaf stage Oryza sativa (rice) plants exposed to compound 3 days post transplantation assessed as phytotoxicity scores at 0.5 kg ai/ha measured 2 weeks post compound treatment; format: organism-based; details: in vivo, 336 h
[2] = test system: Oryza sativa; experiment: Toxicity in direct seeded Oryza sativa (rice) plants assessed as phytotoxicity scores at 0.5 kg ai/ha measured 2 weeks post compound treatment; format: organism-based; details: in vivo, 336 h
[3] = test system: Rotala indica; experiment: Herbicidal activity against Rotala indica exposed to compound at 1.5 to 2 leaf stage assessed as herbicidal rate scores at 0.5 kg ai/ha measured 2 weeks post compound treatment by pot test; format: functional
[4] = test system: Echinochloa oryzicola; experiment: Herbicidal activity against Echinochloa oryzicola exposed to compound at 1.5 to two-leaf stage assessed as herbicidal rate scores at 0.5 kg ai/ha measured 2 weeks post compound treatment by pot test; format: functional
[5] = test system: Schoenoplectiella juncoides; experiment: Herbicidal activity against Schoenoplectiella juncoides exposed to compound at 1.5 to two-leaf stage assessed as herbicidal rate scores at 0.5 kg ai/ha measured 2 weeks post compound treatment by pot test; format: functional
[6] = test system: Cyperus serotinus; experiment: Herbicidal activity against Cyperus serotinus exposed to compound at 1.5 to 2 leaf stage assessed as herbicidal rate scores at 0.5 kg ai/ha measured 2 weeks post compound treatment by pot test; format: functional
[7] = test system: Echinochloa oryzicola; experiment: Herbicidal activity against germinated Echinochloa oryzicola assessed as inhibition of above-ground shoot length growth after 7 days post compound treatment by petri dish test; format: functional; details: for EC50: 168 h, read-out: ED50 (the source's name)

SMILES | Activity [1] | Activity [2] | Activity [3] | Activity [4] | Activity [5] | Activity [6] | ED50 [7] | EC50 [7]
CN(C[C@@]1(c2cccc(Cl)n2)CO1)S(=O)(=O)c1ccc2c(c1)CCCC2 | 0 | 0 | 0 | 0 | 0 | 0 | inactive | –
CN(CC1(c2cccc(Cl)n2)CO1)S(=O)(=O)c1ccc2c(c1)CCCC2 (racemic) | 0 | 0 | 10 | 8 | 2 | 8 | – | 0.11 µg/mL (≈ 0.28 µM)
Cc1cc(S(=O)(=O)N(C)CC2(c3cccc(Cl)n3)CO2)ccc1Cl (racemic) | 0 | 10 | 9 | 10 | 4 | 9 | – | 0.07 µg/mL (≈ 0.181 µM)
CN(C[C@]1(c2cccc(Cl)n2)CO1)S(=O)(=O)c1ccc2c(c1)CCCC2 | 0 | 1 | 10 | 9 | 3 | 9 | – | 0.05 µg/mL (≈ 0.127 µM)
Cc1cc(S(=O)(=O)N(C)C[C@@]2(c3cccc(Cl)n3)CO2)ccc1Cl | 0 | 0 | 2 | 1 | 0 | 2 | inactive | –
Cc1cc(S(=O)(=O)N(C)C[C@]2(c3cccc(Cl)n3)CO2)ccc1Cl | 1 | 10 | 10 | 10 | 7 | 10 | – | 0.035 µg/mL (≈ 0.0904 µM)
